# Test system: HPAE cells
# Assay: Transendothelial electrical resistance (TER) measurement after thrombin
# Assay type: cell-based, Human
# Settings: pretreated with 1 uM Go6976 for 30 min, 50 nM thrombin
# Description: FIG. 7. Effects of C1-S96A mutant on MLC phosphorylation, actin stress fiber formation, and loss of endothelial barrier function in response to thrombin. A-B, MLC phosphorylation in response to thrombin in cells transfected with C1 or C1-S96A-GDI-1 mutant. Cells were stimulated with thrombin for indicated time and lysates were Western blotted with anti-phospho-MLC (top) or anti-GFP Abs to determine MLC phosphorylation. […] C, Actin stress fiber formation in response to thrombin in cells transducing GFP-tagged C1 or GFP-tagged C1-S96A mutant. Cells were stimulated with thrombin for 5 min and fixed followed by staining with Alexa-labeled phallodin to determine actin stress fiber formation by confocal imaging. […] TER values are calculated as change in resistance over the value at time zero (n=7). […] After 30 hrs cells were pretreated with 1 uM Go6976 to inhibit PKCα for 30 min and changes in transendothelial electrical resistance (TER) after addition of 50 nM thrombin were determined. TER values are calculated as change in resistance over the value at time zero (n=8). […]
# Transendothelial resistance measurement: The time course of endothelial cell retraction in real time, a measure of increased endothelial permeability, was measured according to the procedure described previously (16, 23).
smiles,measurement,setting,value
Cn1c2ccccc2c2c3c(c4c5ccccc5n(CCC#N)c4c21)CNC3=O [G66976],thrombin-induced decrease in TER,HPAE cells transducing C1-GDI-1 mutant,significantly reduced
same,thrombin-induced decrease in TER,HPAE cells transducing S91A (S96A) GDI-1 mutant,not seen

# From patent US20080160552A1, “Methods and Compounds for Treating Inflammation” (priority 2006, published 2008)
